Like-named read-outs stand apart in the source and are kept apart here.
Experiments:
Sertoli cells = settings: cells isolated from seminiferous tubules ten days post-treatment, compared to control
Description: Tubular Cell Isolation—The procedure was performed under sterile conditions. Testes from both control and CP-treated mice were removed and tunica albuginea was gently removed by scalpel knife. Seminiferous tubules (STs) were immersed with PBS and thereafter transported through a syringe 2-3 times to complete the mechanical digestion. Thereafter the STs were enzymatically digested as described by AbuMadigem et al. [International Journal of Molecular Sciences 19, 3804 (2018)].
Gene expression—RNA was extracted from isolated testicular cells, from control or CP-treated immature mice, by GenElute Mannalian Total RNA Miniprep Kit [Sigma, St. Louis, USA). cDNA synthesis was performed according to the qScript cDNA Synthesis Kit (Quantabio, Beverly, Mass., USA) and qPCR was performed using specific primers for each examined marker: ABP (forward: [sequence] (SEQ ID NO: 1); reverse: [sequence] (SEQ ID NO:2); product size, 237 bp), INHIBIN B (forward: [sequence] (SEQ ID NO:3); reverse: [sequence] (SEQ ID NO:4); product size, 209 bp), FSH-R (forward: [sequence] […] (SEQ ID NO: 6); product size, 206 bp), Transferrin (forward: [sequence] (SEQ ID NO:7); reverse: [sequence] (SEQ ID NO:8); product size: 231 bp), Housekeeping gene GAPDH (forward: [sequence] (SEQ ID NO:9); reverse: [sequence] (SEQ ID NO:10); product size, 450 bp). qPCR reaction was performed following the 2× qPCRBIO SyGreen Blue Mix Hi-ROX (PCR Biosystems Ltd, Aztec House, 397-405 Archway Road, London, UK) protocol and was performed using the LightCycler 96 real-time PCR machine (Roche, Roche Diagnostics Corporation, Roche CustomBiotech, Indianapolis, Ind., USA). Program: preincubation 10 minutes at 95° C., 40 cycles of 15 seconds at 95° C., 15 seconds at 60° C. and 10 seconds at 72° C. Melting cycle: 10 seconds at 95° C., 60 seconds at 65° C., and 1 second at 97° C. PCR products were identified by the melting curve. The “threshold cycle” (Ct) value for each transcript was identified. The relative quantity of gene expression was analyzed by the 2° method. Results were expressed as the fold of increase related to the GAPDH of the same examined sample and relatively compared to control treatment group.

[1] = test system: isolated seminiferous tubule cells; experiment: Isolated seminiferous tubule cells of 7-days-old mice cultured in methylcellulose culture system (MCS); marker-positive cells by immunofluorescence staining; type: cell-based
[2] = test system: spermatogonial cells isolated from CP-treated immature mice; experiment: In vitro culture in MCS of seminiferous tubule cells from CP-treated immature mice; marker-positive cells by immunofluorescence staining; type: cell-based; settings: for ACROSIN (meiotic/postmeiotic marker), percentage of stained cells / BOULE (meiotic marker), percentage of stained cells / C-KIT (pre-meiotic marker), percentage of stained cells / CD9 (pre-meiotic marker), percentage of stained cells / CREM (meiotic marker), percentage of stained cells / GFR-a (pre-meiotic marker), percentage of stained cells / VASA (pre-meiotic marker), percentage of stained cells / a-6-INTG (pre-meiotic marker), percentage of stained cells: after 4-5 weeks culture in MCS, FSH 7.5 IU/ml, IL-1α 20 pg/ml or TNF-α 20 pg/ml from the beginning, testosterone 10^−7 M at the last week
[3] = test system: isolated seminiferous tubule cells; experiment: Isolated seminiferous tubule cells of 7-days-old mice cultured in MCS; premeiotic and meiotic/postmeiotic marker RNA by qPCR; type: cell-based; settings: GM-CSF 0.1 or 1 ng/ml for 4 weeks; testosterone 10^−7 M added after 2 weeks in control medium for additional 2 weeks; after 4 weeks of culture; compared to control cultured cells
[4] = 10-days post last CP-injection, compared to control, p<0.001
[5] = 10-days post the last CP-injection, compared to control, p<0.001
[6] = CP 100 mg/kg i.p. once a week for 3 weeks, day 10 post-treatment, compared to control, p<0.001
[7] = factor from the beginning of the culture (IL-1α 10 pg/ml; IL-1β or IL-6 1, 10 or 100 pg/ml), after 4 weeks of culture, compared to control medium
[8] = compared to cells cultured in control medium
[9] = GM-CSF 0.1 or 1 ng/ml for 4 weeks, testosterone 10^−7 M added after 2 weeks in control medium for additional 2 weeks, after 4 weeks of culture, compared to control cultured cells
[10] = IL-1α 10 pg/ml added only after 2 weeks of the culture for additional 2 weeks, compared to control medium

In the case of `O=P1(N(CCCl)CCCl)NCCCO1` (centres unmarked) [CP, cyclophosphamide], the “number of Sertoli cells (vimentin)” value (testes of immature mice; [4]) is reported as “significantly reduced”, the “number of peritubular cells (αSMA)” value (testes of immature mice; [4]) is reported as “significantly reduced” and the “number of cells stained positive to the meiotic/postmeiotic marker acrosin” value (testes of immature mice; [5]) is reported as “significantly reduced”. The “number of meiotic cells stained positive to BOULE” value (testes of immature mice; [5]) was “significantly reduced”, the “number of meiotic cells stained positive to CREM” value (testes of immature mice; [5]) was “significantly reduced” and the “number of premeiotic cells stained positive to CD9” value (testes of immature mice; [5]) was “significantly reduced”. The “number of premeiotic cells stained positive to VASA” value (testes of immature mice; [5]) was “significantly reduced”, the “number of premeiotic cells stained positive to c-KIT” value (testes of immature mice; [5]) was “significantly reduced” and the “number of premeiotic cells stained positive to α-6 INTEGRIN” value (testes of immature mice; [5]) was “significantly reduced”. The testicular weight (testes of immature mice; CP 100 mg/kg i.p. once a week for 3 weeks, all time points during 5 weeks after the last injection, compared to control mice, p<0.001) was “significantly decreased”, the seminiferous tubules histology (testes of immature mice; CP 100 mg/kg i.p. once a week for 3 weeks, day 10 post-treatment, compared to control) was “significantly impaired” and the testicular cell count (testes of immature mice; [6]) was “decreased”. For the same molecule, the testicular weight (testes of immature mice; [6]) was “decreased”, the seminiferous tubules histology (testes of immature mice; CP 100 mg/kg i.p. once a week for 3 weeks, during 3 weeks after the last injection) was “impaired” and the “time of most severe damage for the seminiferous tubules” value (testes of immature mice; CP 100 mg/kg i.p. once a week for 3 weeks, weeks post-treatment) was 1-2 weeks. For the same molecule, the “expression levels of androgen binding protein (ABP)” value (Sertoli cells) was “did not significantly affect”, the “expression levels of transferrin” value (Sertoli cells; p<0.01) was “significantly increased” and the “expression levels of FSH-receptor (FSH-R)” value (Sertoli cells; p<0.05) was “significantly increased”. For the same molecule, the “expression levels of inhibin” value (Sertoli cells; p<0.05) was “significantly increased”.

In the case of “IL-1β: interleukin 1 beta cytokine (PeproTech), 1, 10 or 100 pg/ml”, the “percentages of BOULE positive cells” value [1, 7] is reported as “significantly increased”, the “percentages of VASA positive cells” value [1, 7] is reported as “significantly increased” and the “percentages of acrosin positive cells” value [1, 7] is reported as “significantly increased”.

In the case of `C[C@]12CC[C@H]3[C@@H](CCC4=CC(=O)CC[C@@]43C)[C@@H]1CC[C@@H]2O` [testosterone, reference compound], the “ACROSIN (meiotic/postmeiotic marker), percentage of stained cells” value [2] is reported as 55.53%, the “BOULE (meiotic marker), percentage of stained cells” value (from here on “BOULE (meiotic marker), percentage”) [2] is reported as 22.15% and the “C-KIT (pre-meiotic marker), percentage of stained cells” value (“C-KIT (pre-meiotic marker), percentage” for short) [2] is reported as 11.13%. For the same molecule, the “CD9 (pre-meiotic marker), percentage of stained cells” value (“CD9 (pre-meiotic marker), percentage” for short) [2] was 42.63%, the “CREM (meiotic marker), percentage of stained cells” value (shortened to “CREM (meiotic marker), percentage”) [2] was 38.42% and the “GFR-a (pre-meiotic marker), percentage of stained cells” value (“GFR-a (pre-meiotic marker), percentage” for short) [2] was 24.03%. For the same molecule, the “VASA (pre-meiotic marker), percentage of stained cells” value (“VASA (pre-meiotic marker), percentage” for short) [2] was 23.76%, the “a-6-INTG (pre-meiotic marker), percentage of stained cells” value (“a-6-INTG … percentage of stained cells” below) [2] was 12.23% and the “percentage of the meiotic/postmeiotic ACROSIN positive cells” value [2, 8] was “significantly increased”. The “percentage of the other examined premeiotic and meiotic (or meiotic/postmeiotic) cells developed in MCS” value [2, 8] was “without any significant effect” and the “percentage of the premeiotic CD9 positive cells” value [2, 8] was “significantly increased”.

For TNFα, the “ACROSIN (meiotic/postmeiotic marker), percentage of stained cells” value [2] was 36.4%, the “BOULE (meiotic marker), percentage” value [2] was 21.1% and the “C-KIT (pre-meiotic marker), percentage” value [2] was 29.05%. For the same molecule, the “CD9 (pre-meiotic marker), percentage” value [2] was 33.52%, the “CREM (meiotic marker), percentage” value [2] was 36.1% and the “GFR-a (pre-meiotic marker), percentage” value [2] was 25.3%. The “VASA (pre-meiotic marker), percentage” value [2] was 31.67%, the “a-6-INTG … percentage of stained cells” value [2] was 25.76% and the “percentage of the other examined premeiotic and meiotic (or meiotic/postmeiotic) cells developed in MCS” value [2, 8] was “without any significant effect”. For the same molecule, the “percentage of the premeiotic CD9 positive cells” value [2, 8] was “significantly increased”.

With GM-CSF the “percentage of VASA positive cells” value [1, 9] was “significantly increased”, the “percentage of acrosin positive cells” value [1, 9] was “did not significantly increase” and the “percentages of BOULE positive cells” value [1, 9] was “significantly increased”. For the same molecule, the “BOULE expression levels (qPCR)” value [3] was “significantly increased”, the “PLZF expression level (qPCR)” value [3] was “significantly increased” and the “VASA expression level (qPCR)” value [3] was “significantly increased”. For the same molecule, the “acrosin expression levels (qPCR)” value [3] was “did not significantly increase”.

For “IL-6: interleukin-6 cytokine (PeproTech), 1, 10 or 100 pg/ml”, the “percentages of BOULE positive cells” value [1, 7] was “significantly increased”, the “percentages of VASA positive cells” value [1, 7] was “significantly increased” and the “percentages of acrosin positive cells” value [1, 7] was “significantly increased”.

B1: IL-1α: interleukin 1 alpha cytokine (BioLegend 20 pg/ml; PeproTech 10 pg/ml) (protein, UniProt P01583 113-271, looked up)
Interleukin-1 alpha: SAPFSFLSNVKYNFMRIIKYEFILNDALNQSIIRANDQYLTAAALHNLDEAVKFDMGAYKSSKDDAKITVILRISKTQLYVTAQDEDQPVLLKEMPEIPKTITGSETNLLFFWETHGTKNYFTSVAHPNLFIATKQDYWVCLAGGPPSITDFQILENQA
For B1, the “percentages of BOULE positive cells” value [1, 10] was “increased the percentages of BOULE positive cells, but not significantly”, the “percentages of VASA positive cells” value [1, 10] was “increased the percentages of VASA positive cells, but not significantly” and the “percentages of acrosin cells” value [1, 10] was “increased the percentages of acrosin cells, but not significantly”. For the same molecule, the “percentages of BOULE positive cells” value [1, 7] was “significantly increased”, the “percentages of VASA positive cells” value [1, 7] was “significantly increased” and the “percentages of acrosin positive cells” value [1, 7] was “significantly increased”. The “ACROSIN (meiotic/postmeiotic marker), percentage of stained cells” value [2] was 34.27%, the “BOULE (meiotic marker), percentage” value [2] was 27.16% and the “C-KIT (pre-meiotic marker), percentage” value [2] was 16.5%. The “CD9 (pre-meiotic marker), percentage” value [2] was 23.4%, the “CREM (meiotic marker), percentage” value [2] was 30.45 + % and the “GFR-a (pre-meiotic marker), percentage” value [2] was 22.77%. For the same molecule, the “VASA (pre-meiotic marker), percentage” value [2] was 20.8%, the “a-6-INTG … percentage of stained cells” value [2] was 17.5% and the “percentage of premeiotic, meiotic and meiotic/postmeiotic examined cells developed in MCS” value [2, 8] was “did not show any significant effect”.
